3 compounds from paper PMC10788915, “Fragment Merging, Growing, and Linking Identify New Trypanothione Reductase Inhibitors for Leishmaniasis” (Journal of Medicinal Chemistry, 2024) can be followed below.

The nature of data set [1]: Cytotoxicity assay on primary murine macrophages (MTT). The conditions noted are these: Balb/c, mouse, primary peritoneal exudate macrophages, read-out: primary murine macrophage CC50 ± SE (95% CI). It counts as cell-based, Balb/c mice. As for the experimental part: (§1) To assess the cytotoxicity of compounds on mammalian macrophages, we tested all the compounds against both human leukemia monocyte cell line (THP-1 cells, ATCC) differentiated into macrophages by treatment with 40 ng/mL of phorbol myristate acetate (PMA; Sigma) for 48 h and peritoneal exudate macrophages harvested from Balb/c mice. […] Cell viability was evaluated using the MTT assay, and the concentration of the compound that produced a 50% reduction of cell viability in treated culture cells with respect to untreated ones (CC50) was determined by GraphPad Prism 5.0 (GraphPad Software Inc., San Diego, USA). […] The selectivity index for each compound was calculated as the ratio of cytotoxicity (CC50) in macrophages cells to activity (IC50) against Leishmania axenic amastigotes. The experiments were performed in triplicate, and two independent experiments were conducted.

Data set [2] deals with human THP-1-derived macrophages. As to the kind of experiment: Cytotoxicity assay on human THP-1-derived macrophages (MTT). Type of data set: cell-based. Here is the method: as §1
Test in data set [3]: as above
It counts as cell-based. The following applies: human, THP-1 cells differentiated into macrophages with PMA, 72 h, MTT; read-out: human THP-1-derived macrophage CC50 ± SE (95% CI). As for the experimental part:
as §1

Data set [4] concerns the target T1, Leishmania infantum TR (LiTR) (Leishmania infantum, UniProt A4HSF7).
T1 construct: The TbTR and LiTR genes were subcloned in a pET28b vector; 6-His (cleaved yes); made in house; host or cells: E. coli BL21(DE3), pET28b
Kind of data set: LiTR inhibition kinetics, Ki from Dixon plots. It counts as biochemical. The following applies: for mode of inhibition of LiTR: Dixon plots; for Ki: graphically determined from Dixon plots. As for the experimental part: Enzymatic inhibition assays were performed in 50 mM HEPES pH 7.4, 40 mM NaCl at 25 °C using a JASCO V650 spectrophotometer equipped with a JASCO EHC 716 Peltier element to ensure controlled temperature. The first experiment was carried out using 50 nM LiTR, 10 or 100 μM compound to be tested, 150 μM trypanothione (trypanothione disulfide purchased from Bachem), and 100 μM NADPH (tetrasodium salt, purchased from Calbiochem). The best inhibitor candidates were then tested at concentrations ranging from 1 nM to 250 μM to determine the IC50. Assays were initiated upon addition of 100 μM NADPH to 50 nM LiTR or hGR (human glutathione reductase purchased from Sigma-Aldrich) in the presence of different concentration of compounds and 150 μM trypanothione. For both experiments, the oxidation of NADPH was followed as a decrease in absorbance at 340 nm. For each concentration of compound, the initial velocity of the NADPH oxidation was used to determine the percentage of LiTR activity with respect to that in the absence of any compound. The IC50 was determined upon fitting the residual activity of TR as a dose–response logistic equation defined as ymin + (ymax – ymin)/(1 + (x/IC50)^slope). […] The Ki was determined graphically upon linear fitting of data points for each trypanothione concentration. Data analysis was performed with QtiPlot 0.9.8.9 svn 2288, and graphs were made with Matplotlib. […]
assays were carried out at 25°C on a JASCO V650 spectrophotometer equipped with a JASCO EHC716 Peltier unit. Compound concentrations range from 1 to 6 µM. Briefly, 50 nM LiTR were mixed in 50 mM HEPES pH 7.4, 40 mM NaCl with each compound and various concentrations of trypanothione (reported on the figure). After 3-minute incubation at 25°C, the measurement was initiated upon addition of 100 µM NADPH. The oxidation of NADPH was followed as a decrease in absorbance at 340 nm. The inverse of the initial velocity of LiTR enzymatic reaction was reported as a function of the compound concentration. The intersection of the linear fitting of data at different trypanothione concentration provides a graphical determination of the inhibition constant K i. Each data point is the mean of three measurements.
(§2) (1 picture or pasted object on this page, not shown here)

Data set [5] concerns the target T1, Leishmania infantum TR (LiTR). As to the kind of experiment: LiTR enzymatic inhibition assay (NADPH oxidation at 340 nm). It counts as biochemical. The conditions noted are these: for IC50: 50 nM LiTR, 150 μM trypanothione, 100 μM NADPH, 25 °C; for gain in LiTR IC50 with respect to 5: compared to compound 5 (IC50 54.6 μM); for remaining activity at 10 µM: compound at 10 μM, mean ± SD, n = 3, read-out: LiTR residual activity %. As for the experimental part:
Enzymatic inhibition assays were performed in 50 mM HEPES pH 7.4, 40 mM NaCl at 25 °C using a JASCO V650 spectrophotometer equipped with a JASCO EHC 716 Peltier element to ensure controlled temperature. The first experiment was carried out using 50 nM LiTR, 10 or 100 μM compound to be tested, 150 μM trypanothione (trypanothione disulfide purchased from Bachem), and 100 μM NADPH (tetrasodium salt, purchased from Calbiochem). The best inhibitor candidates were then tested at concentrations ranging from 1 nM to 250 μM to determine the IC50. Assays were initiated upon addition of 100 μM NADPH to 50 nM LiTR or hGR (human glutathione reductase purchased from Sigma-Aldrich) in the presence of different concentration of compounds and 150 μM trypanothione. For both experiments, the oxidation of NADPH was followed as a decrease in absorbance at 340 nm. For each concentration of compound, the initial velocity of the NADPH oxidation was used to determine the percentage of LiTR activity with respect to that in the absence of any compound. The IC50 was determined upon fitting the residual activity of TR as a dose–response logistic equation defined as ymin + (ymax – ymin)/(1 + (x/IC50)^slope). […] The Ki was determined graphically upon linear fitting of data points for each trypanothione concentration. Data analysis was performed with QtiPlot 0.9.8.9 svn 2288, and graphs were made with Matplotlib.
Figure S3. Inhibition assay of LiTR (red) and hGR (grey) with compounds 5-6, 9-10 and 14.
Enzymatic assays were carried out at 25°C on a JASCO V650 spectrophotometer equipped with a JASCO EHC716 Peltier unit. Compound concentrations used during the experiments range from 1 […]
higher than 30 µM and 20 µM, respectively. Briefly, 50 nM LiTR or hGR (Sigma Aldrich) were mixed in 50 mM HEPES pH 7.4, 40 mM NaCl with each compound and 150 µM trypanothione or glutathione. After 3-minute incubation at 25°C, the measurement was initiated upon addition of 100 µM NADPH. The oxidation of NADPH was followed as a decrease in absorbance at 340 nm. Each initial velocity of LiTR enzymatic reaction with the compounds was expressed as a percentage of residual activity with respect to that in the absence of compound. Each data point is the mean of two measurements. The IC50 was determined upon fitting the data as a dose response logistic equation defined by the Kaleidagraph software as ymin+(ymax-ymin)/(1+(x/IC50)^slope).
as §2

T1 sequence (A4HSF7 1-491): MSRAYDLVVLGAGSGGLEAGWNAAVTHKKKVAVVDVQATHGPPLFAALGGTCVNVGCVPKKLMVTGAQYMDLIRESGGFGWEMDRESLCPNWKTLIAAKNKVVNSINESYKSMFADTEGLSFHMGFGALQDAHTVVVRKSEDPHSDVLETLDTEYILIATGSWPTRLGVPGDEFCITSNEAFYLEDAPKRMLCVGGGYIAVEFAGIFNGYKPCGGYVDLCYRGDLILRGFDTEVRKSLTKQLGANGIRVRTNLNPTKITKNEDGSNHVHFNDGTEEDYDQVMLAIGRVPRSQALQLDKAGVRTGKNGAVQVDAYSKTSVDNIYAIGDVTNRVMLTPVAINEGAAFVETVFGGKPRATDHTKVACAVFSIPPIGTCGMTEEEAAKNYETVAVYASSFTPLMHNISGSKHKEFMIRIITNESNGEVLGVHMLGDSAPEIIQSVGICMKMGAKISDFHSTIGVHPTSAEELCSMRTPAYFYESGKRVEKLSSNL

On to `C[N+]1(CCCc2ccccc2)CCN(C(=O)N(Cc2ccc(C(=O)NCCc3ccc(F)cc3)o2)c2ccc(F)cc2)CC1.[I-]` [Compound 9, 4-(((5-((4-Fluorophenethyl)carbamoyl)furan-2-yl)methyl)(4-fluorophenyl)carbamoyl)-1-methyl-1-(3-phenylpropyl)piperazin-1-ium Iodide], for which the CC50 at 72 h in data set [1] was 29.9 ± 4.2 µM. For the same compound, the “SI = human THP-1-derived macrophage CC50/axenic amastigote EC50” value in data set [2] was determined as 3.7. Besides, in data set [3], the CC50 at 72 h stood at 38.4 ± 11 µM. Besides, in data set [4], the “mode of inhibition of LiTR” value is on record as “linear competitive inhibition” and affinity was put at a Ki of 5.5 ± 0.2 µM. Moreover, in data set [5], the half-inhibitory concentration (IC50) came out at 20.5 ± 2 µM, the “gain in LiTR IC50 with respect to 5” value is recorded as “about 3 fold” and the remaining activity at 10 µM is 48.5 ± 7.9%.

On to `O=C(NCCc1ccc(F)cc1)c1ccc(CN(C(=O)N2CC[N+](CCCc3ccccc3)(Cc3ccc(Cl)c(Cl)c3)CC2)c2ccc(F)cc2)o1.[I-]` [Compound 10, 1-(3,4-Dichlorobenzyl)-4-(((5-((4-fluorophenethyl)carbamoyl)furan-2-yl)methyl)(4-fluorophenyl)carbamoyl)-1-(3-phenylpropyl)piperazin-1-ium Iodide], for which, in data set [1], the CC50 at 72 h was determined as 12.5 ± 0.8 µM. Also, the “SI = human THP-1-derived macrophage CC50/axenic amastigote EC50” value in data set [2] is recorded as 1.4. The CC50 at 72 h in data set [3] amounted to 16 ± 2.4 µM. Further, in data set [4], the “mode of inhibition of LiTR” value was “linear competitive inhibition” and the inhibitory constant (Ki) came to 0.2 µM. Further, in data set [5], half-maximal inhibition (IC50) required 1.31 ± 0.07 µM, the “gain in LiTR IC50 with respect to 5” value is given as 42 fold and the remaining activity at 10 µM was 22 ± 11.6%.

In the case of `O=C(NCCc1ccc(F)cc1)c1ccc(CNC(=O)N2CC[N+](CCCc3ccccc3)(Cc3ccc(Cl)c(Cl)c3)CC2)o1.[I-]` [Compound 14, 1-(3,4-Dichlorobenzyl)-4-(((5-((4-fluorophenethyl)carbamoyl)furan-2-yl)methyl)carbamoyl)-1-(3-phenylpropyl)piperazin-1-ium Iodide], the CC50 at 72 h in data set [1] was determined as 12.7 ± 0.9 µM. The “SI = human THP-1-derived macrophage CC50/axenic amastigote EC50” value in data set [2] was determined as 2.3. The 50% cytotoxic concentration (CC50) at 72 h in data set [3] turned out to be 20.5 ± 3.6 µM. Moreover, in data set [4], the “mode of inhibition of LiTR” value was “linear competitive inhibition” and the Ki is 0.8 ± 0.2 µM. Besides, in data set [5], it took 2.35 ± 0.21 µM to reach half-maximal inhibition (IC50), the “gain in LiTR IC50 with respect to 5” value is reported as 23 fold and the remaining activity at 10 µM amounted to 10.3 ± 2.8%.

As usually defined, the CC50 is the concentration that lowers cell viability or growth by half. The term Ki denotes a dissociation constant, usually derived from enzyme kinetics or from competition with a known ligand. Read a low Ki as higher affinity. One may read the IC50 as the concentration at which inhibition is half-maximal. A lower IC50 goes with greater potency.
